Entries after “also recorded” stand apart in the source; their conditions may differ. {FAM} = fluorescein (FAM) fluorophore label; {BHQ1} = Black Hole Quencher 1
What was measured:
Assay type in all cases: binding
[1] = tested on: Bgal_WT_tar oligo target; assay: Affinity of stemless probes to single stranded oligo target (melt 25-90° C.); settings: for Signal (25° C.): fluorescence at 25° C., hybridised to oligo target; for Signal (25° C.) / Signal (90° C.): 280 mM NaCl, 20 mM Na2HPO4 buffer; for Signal (90° C.): fluorescence at 90° C.
Text: This example illustrates how stemless beacons comprising hydrophobic modifications of the structure: X—Y-Q where X is a backbone monomer unit linked to the oligo by phosphordiester bonds and of the structure —O—CH2—CH2—O—, Y is a —CH2—O—CH2— linker and Q is 1′-pyrene, will have higher affinity towards a fully complementary target sequence than a probe not comprising said hydrophobic modifications.
It can be seen from FIG. 13 that all stemless beacons have the similar or higher affinity for the complementary oligo nucleotide target compared to the corresponding DNA. Furthermore it can be calculated that all of the stemless beacons presented in this example (exclusive probe—1) have a similar or higher signal-to-noise ratio than the DNA probe without hydrophobic modifications (signal at 25 degrees divided by signal at 90 degrees).

[2] = tested on: matched DNA target; assay: Melting temperature experiment (dissociation curve) of probe hybridised to matched DNA target; settings: for difference between hybridisation temperature to matched and mismatched target: FIG. 3, matched versus mismatched target; for temperature at which the probe hybridises to its matched target: FIG. 3, negative derivative of dissociation curve, 4 mM MgCl2, 50 mM KCl, 10 mM TRIS-HCl, pH=8.0
Method: (§1) The measurement was done as a melting temperature experiment on a Mx3000, Stratagene Real-time PCR instrument in a 96-well plate. The measurements were done in a buffer solution reflecting the buffer solutions used in a normal Real-time PCR reaction. The buffer contained 4 mM MgCl2, 50 mM KCl, 10 mM TRIS-HCl, pH=8.0. 1 μL of the Stemless Beacon (5 pmol/μL) and 2 μL of the DNA target sequence (5 pmol/μL) and 22 μL of the buffer mentioned above. First the mixtures were heated to 95° C. for 1 min to denature the secondary structures followed by annealing of the duplexes at 35° C. and ramping up to 95° C. while measuring the signal for every degrees change. Results are shown in FIG. 2, and other details like the sequences of the Stemless Beacons can be seen in the legend to said Figure.
(§2) The Measurements were carried out as described in example 2 above. Result and sequence information can be found in FIG. 3 and in the legend to said figure. The results are shown as the first derivative of the signal against temperature.

[3] = tested on: mismatched DNA target; assay: Melting temperature experiment (dissociation curve) of probe hybridised to mismatched DNA target; settings: for temperature at which the probe hybridises to its mismatched target: FIG. 3, negative derivative of dissociation curve, 4 mM MgCl2, 50 mM KCl, 10 mM TRIS-HCl, pH=8.0
Method: as §1, §2

[4] = tested on: nucleotide 2074 of human Andrenogen receptor, wild type (THP cDNA) and A→G mutant (LNCap cDNA); assay: End-point affinity measurements on FAM and HEX channel, SNP detection
Method: (§3) A test was setup to see if the used combination of probes would be able to distinguish between the wildtype and the A→G transition mutant. Measurements in this example were carried out on the Real-time PCR machine Rotorgene™ 3000 from Corbett Research.
(§4) In this experiment the mut. specific probe was added together with wt. specific probe in a homogenous assay. The label 1 means the inserted pseudonucleotide or hydrophobic nucleotide (Phosphoramidite of (S)-1-(4,4′-dimethoxytriphenylmethyloxy)-3-pyrenemethyloxy-2-propanol) comprising the hydrophobic, intercalating molecule pyrene (with the number XII from the description above). The label 2 means the inserted pseudonucleotide or hydrophobic nucleotide (Phosphoramidite of 3-(1-O-(4,4′-dimethoxytriphenylmethyl)-2-O-(2-cyanoethyl diisopropylamidophosphite)-1,2-butandiol)-4-N-(7,9-Dimethyl-3H-pyrido[3′,2′:4,5]thieno[3,2-d]pyrimidin-4-one)) (comprising the intercalating hydrophobic group with the number XXVI from the description above). FAM and Hex are fluorophores and BHQ1 is a quencher.
(§5) The template: 2 samples of each with cDNA extracted from either LNCap (mutant) and/or THP (wt) (6 samples overall).
(§6) The Real-Time PCR profile used is depicted in FIG. 14B.

[5] = tested on: nucleotide 2074 of human Andrenogen receptor, wild type (THP cDNA) and A→G mutant (LNCap cDNA); assay: Real-time PCR SNP detection, fluorescence read at 55, 61 and 65° C.
Method: as §3, §4, §5, §6

[6] = Example 2, FIG. 2, methylated/unmethylated bisulphite treated DNA target

5′-Fam A1C CGA CCC AGC GCC 1C BHQ1-3′ [Probe _2]
Signal (25° C.) [1]: 34.12 | Signal (90° C.) [1]: 4.7

5′-Fam ACC G1A CCC AGC 1GC CC BHQ1-3′ [Probe _5]
Signal (25° C.) [1]: 50.57 | Signal (90° C.) [1]: 7.81

5′-Fam ACC GA1 CCC AG1 CGC CC BHQ1-3′ [Probe _6]
Signal (25° C.) [1]: 77.01 | Signal (90° C.) [1]: 12.85

5′-Fam ACC GAC 1CC A1G CGC CC BHQ1-3′ [Probe _7]
Signal (25° C.) [1]: 46.92 | Signal (90° C.) [1]: 7.98

5′-Fam ACC GAC CCA GCG CCC BHQ1-3′ (DNA ACCGACCCAGCGCCC; reference probe without hydrophobic nucleotides, sugar not given here, further chemistry not given here) [Probe _ref (DNA), DNA probe without hydrophobic modifications, reference compound]
Signal (25° C.) [1]: 38.11 | Signal (90° C.) [1]: 8.65 | Signal-to-noise ([1]; signal at 25 degrees divided by signal at 90 degrees): 4.41

FAM-A2AAA2ATCCCG2CGA2ACT-BHQ1 (DNA ANAAANATCCCGNCGANACT; FAM, BHQ1, 4 hydrophobic pseudonucleotide insertions, chemistry not fully specified) [Stemless Beacon]
melting temperature of the probe against the fully matched target [2, 6]: 67 °C | background fluorescence (fluorescence of unbound probe) compared to the Stemless DNA probe ([2]; FIG. 2, 35 to 95° C.): significantly reduced background fluorescence; also recorded: much lower | melting temperature of the probe against the mismatched target [3, 6]: 56 °C

FAM-ATTTTAGGGCGTTTTTTTG-BHQ1 (DNA, 5' {FAM}, 3' {BHQ1}, backbone not given here) [reference compound]
difference between hybridisation temperature to matched and mismatched target [2]: 7.8 °C | temperature at which the probe hybridises to its matched target [2]: 64.9 °C | temperature at which the probe hybridises to its mismatched target [3]: 57.1 °C

FAM-T1CAAA1AGTGA1ACTG1AT-BHQ1 (DNA TNCAAANAGTGANACTGNAT; DNA probe with hydrophobic pseudonucleotide insertions denoted 1, structure not given here, further chemistry not given here) [wt specific probe, wild type specific probe; 1 = pyrene pseudonucleotide]
width of window of specific hybridisation ([4]; FAM channel): approximately 5 degree | binding of probe in real-time PCR ([5]; at 55° C.): binds to both the wild type target and the mutant | binding of probe in real-time PCR ([5]; at 61° C.): only a specific signal from wt probe is obtained | binding of probe in real-time PCR ([5]; at 65° C.): only binding to its specific target

FAM-T2AGG2GCGT2TTTT2T-BHQ1 (DNA TNAGGNGCGTNTTTTNT; FAM, BHQ1, intercalating pseudonucleotide insertions, further chemistry not given here) [SB, 2 = inserted pseudonucleotide comprising intercalating hydrophobic group XXVI]
difference between hybridisation temperature to matched and mismatched target [2]: 13.8 °C | temperature at which the probe hybridises to its matched target [2]: 63.7 °C | specificity higher than Stemless DNA probe having the same affinity ([2]; measured as difference in affinity to a matched versus a mismatched target): 77% | temperature at which the probe hybridises to its mismatched target [3]: 49.9 °C

HEX-2TCAAA2AGCGA2ACTG2AT-BHQ1 (DNA NTCAAANAGCGANACTGNAT; pseudonucleotide insertions denoted 2, identity not given here, further chemistry not given here) [mut. specific probe, mutant specific probe; 2 = pseudonucleotide with hydrophobic group XXVI]
width of window distinguishing fully complementary from single nucleotide mismatched target ([4]; HEX channel, at temperatures above 55° C.): at least 10 °C | binding of probe in real-time PCR ([5]; at 55° C.): hybridising specifically to its target | binding of probe in real-time PCR ([5]; at 61° C.): worked fine | binding of probe in real-time PCR ([5]; at 65° C.): no longer binding
